Experimental data published in patent US8778919B2, “Cyclic anilino—pyridinotriazines” (Janssen Pharmaceutica NV, priority 2005, dated 2014).
pIC50: −log10 of the molar value.

Legend:
Format in all cases: biochemical
GSK-3α = GSK-3α (Homo sapiens, UniProt P49840); assay: GSK-3 kinase assay (C1), GSK-3α; conditions: 1 μM ATP, read-out: C1 Score α
Description: (§1) In vitro GSK-3 assays were performed at room temperature in a 100 μl reaction volume of 25 mM Tris (pH 7.4) containing 10 mM MgCl2.6H2O, 1 mM DTT, 0.1 mg/ml BSA, 5% glycerol, 5.7 ng/μl GSK-3β or 0.25 ng/μl GSK-3α, 5 μM biotinylated CREB peptide, 1 μM ATP, 0.85 μCi/ml ^33P-ATP and a suitable amount of a test compound. After one hour, the reaction was terminated by adding 70 μl of Stop mix (0.1 mM ATP, 5 mg/ml streptavidin coated PVT SPA beads, pH 11.0). The beads were allowed to settle overnight and the radioactivity attached to the beads was counted in a microtiter plate scintillation counter and compared with the results obtained in a control experiment (without the presence of a test compound) in order to determine the percentage of GSK-3 inhibition. The IC50 value, i.e. the concentration (M) of the test compound at which 50% of GSK-3 is inhibited, was calculated from the dose response curve obtained by performing the above-described GSK-3 assay in the presence of different amounts of the test compound. Score 1=pIC50 value<6, Score 2=pIC50 value from 6-7, Score 3=pIC50 value from 7-8, Score 4=pIC50 value>8.

GSK-3β = GSK-3β (Homo sapiens, UniProt P49841); assay: GSK-3 kinase assay (C1), GSK-3β; conditions: 1 μM ATP; for pIC50: read-out: C1 Score β
Sequence of GSK-3β (P49841 whole entry, species assumed): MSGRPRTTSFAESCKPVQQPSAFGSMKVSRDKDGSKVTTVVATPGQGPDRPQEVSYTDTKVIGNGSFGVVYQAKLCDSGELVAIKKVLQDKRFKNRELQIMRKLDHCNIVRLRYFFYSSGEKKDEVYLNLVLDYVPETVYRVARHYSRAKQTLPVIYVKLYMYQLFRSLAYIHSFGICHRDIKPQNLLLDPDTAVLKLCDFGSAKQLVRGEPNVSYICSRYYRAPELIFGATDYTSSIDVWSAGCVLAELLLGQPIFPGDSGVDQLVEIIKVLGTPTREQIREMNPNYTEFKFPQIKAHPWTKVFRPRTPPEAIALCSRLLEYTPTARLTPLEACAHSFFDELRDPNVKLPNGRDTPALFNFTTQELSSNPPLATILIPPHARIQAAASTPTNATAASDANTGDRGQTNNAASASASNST
Description: as §1

CDK1/cyclinB (h) = CDK1/cyclinB (h) (Homo sapiens, UniProt P06493); assay: Kinase profiling C3.2 CDK1/cyclinB human; conditions: test concentration of 10^−6 M
Sequence of CDK1/cyclinB (h) (P06493 whole entry): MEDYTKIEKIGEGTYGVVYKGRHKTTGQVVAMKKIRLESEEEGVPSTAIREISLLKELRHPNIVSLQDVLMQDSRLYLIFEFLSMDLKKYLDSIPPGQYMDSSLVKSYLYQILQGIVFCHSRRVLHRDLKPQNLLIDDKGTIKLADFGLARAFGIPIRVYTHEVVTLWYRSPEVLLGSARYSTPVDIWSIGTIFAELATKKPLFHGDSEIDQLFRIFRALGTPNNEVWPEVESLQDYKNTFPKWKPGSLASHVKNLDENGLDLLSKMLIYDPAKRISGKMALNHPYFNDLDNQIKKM
Sequence of CDK1/cyclinB (h) (P14635 whole entry partner): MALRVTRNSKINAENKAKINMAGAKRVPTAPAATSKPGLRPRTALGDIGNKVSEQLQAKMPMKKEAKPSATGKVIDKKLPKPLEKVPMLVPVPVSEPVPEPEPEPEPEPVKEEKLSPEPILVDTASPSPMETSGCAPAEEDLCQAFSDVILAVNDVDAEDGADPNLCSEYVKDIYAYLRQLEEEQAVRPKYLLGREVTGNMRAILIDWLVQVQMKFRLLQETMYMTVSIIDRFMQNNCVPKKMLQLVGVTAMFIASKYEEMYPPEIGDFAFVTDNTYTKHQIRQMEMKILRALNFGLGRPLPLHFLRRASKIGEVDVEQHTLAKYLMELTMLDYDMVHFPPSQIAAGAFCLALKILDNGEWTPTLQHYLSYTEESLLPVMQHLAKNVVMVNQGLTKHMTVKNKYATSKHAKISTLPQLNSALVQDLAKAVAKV
Description: (§2) The in vitro inhibition of a panel of kinases was assessed using either the glass-fiber filter technology as described by Davies, S. P. et al., Biochem J. (2000), 351; p. 95-105. In the glass-fiber filter technology the activity of the kinase of interest is measured using an appropriate substrate that is incubated with the aforementioned kinase protein in the presence of (^33P) radiolabeled ATP. (^33P) Phosporylation of the substrate is subsequently measured as radioactivity bound on a glassfiber-filter.
(§3) All kinases are pre-diluted to a 10× working concentration prior to addition into the assay. The composition of the dilution buffer for each kinase is detailed below.
(§4) All substrates are dissolved and diluted to working stocks in de-ionised water, apart from histone H1 that is stored in 10× working stock in 20 mM MOPS pH 7.4.
(§5) In a final reaction volume of 25 μl, CDK1/cyclinB (h) (5-10 mU) is incubated with 8 mM MOPS pH 7.0, 0.2 mM EDTA, 0.1 mg/ml histone H1, 10 mM MgAcetate and [γ-^33P-ATP] (specific activity approx. 500 cpm/pmol, concentration as required). The reaction is initiated by the addition of the MgATP mix. After incubation for 40 minutes at room temperature, the reaction is stopped by the addition of 5 μl of a 3% phosphoric acid solution. 10 μl of the reaction is then spotted onto a P30 filtermat and washed three times for 5 minutes in 75 mM phosphoric acid and once in methanol prior to drying and scintillation counting.

CDK2/cyclinA (h) = CDK2/cyclinA (h) (Homo sapiens, UniProt P24941); assay: Kinase profiling C3.3 CDK2/cyclinA human; conditions: test concentration of 10^−6 M
Description: as §2, §3, §4
as §5, with “CDK2/cyclinA” for “CDK1/cyclinB”

CDK2/cyclinE (h) = CDK2/cyclinE (h) (Homo sapiens, UniProt P24941); assay: Kinase profiling C3.4 CDK2/cyclinE human; conditions: test concentration of 10^−6 M
Description: as §2, §3, §4
as §5, with “CDK2/cyclinE” for “CDK1/cyclinB”

CDK3/cyclinE (h) = CDK3/cyclinE (h) (Homo sapiens, UniProt Q00526); assay: Kinase profiling C3.5 CDK3/cyclinE human; conditions: test concentration of 10^−6 M
Description: as §2, §3, §4
as §5, with “CDK3/cyclinE” for “CDK1/cyclinB”

CDK5/p35 human = CDK5/p35 human (Homo sapiens, UniProt Q00535); assay: Kinase profiling C3.6 CDK5/p35 human; conditions: CDK5/p35, test concentration of 10^−6 M
Sequence of CDK5/p35 human (Q00535 whole entry): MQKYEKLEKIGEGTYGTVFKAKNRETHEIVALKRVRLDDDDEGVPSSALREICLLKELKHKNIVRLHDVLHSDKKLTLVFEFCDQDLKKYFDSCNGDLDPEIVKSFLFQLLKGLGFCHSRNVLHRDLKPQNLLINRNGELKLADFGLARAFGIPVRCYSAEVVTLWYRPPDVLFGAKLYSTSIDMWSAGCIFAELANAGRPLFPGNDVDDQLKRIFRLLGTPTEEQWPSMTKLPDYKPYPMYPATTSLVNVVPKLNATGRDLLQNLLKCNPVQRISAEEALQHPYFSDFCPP
Sequence of CDK5/p35 human (Q15078 whole entry partner): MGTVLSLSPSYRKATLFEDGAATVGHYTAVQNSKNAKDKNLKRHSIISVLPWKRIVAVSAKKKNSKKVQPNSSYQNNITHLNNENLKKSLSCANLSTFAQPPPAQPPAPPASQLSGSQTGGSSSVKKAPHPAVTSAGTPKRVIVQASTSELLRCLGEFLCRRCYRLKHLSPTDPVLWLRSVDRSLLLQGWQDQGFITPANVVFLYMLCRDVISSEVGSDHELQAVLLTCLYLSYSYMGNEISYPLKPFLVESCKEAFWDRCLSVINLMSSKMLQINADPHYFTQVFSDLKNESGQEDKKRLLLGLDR
Description: as §2, §3, §4
as §5, with “CDK5/p35 human” for “CDK1/cyclinB (h)”

CDK6/cyclinD3 human = CDK6/cyclinD3 human (Homo sapiens, UniProt Q00534); assay: Kinase profiling C3.7 CDK6/cyclinD3 human; conditions: CDK6/cyclinD3, test concentration of 10^−6 M
Sequence of CDK6/cyclinD3 human (Q00534 whole entry): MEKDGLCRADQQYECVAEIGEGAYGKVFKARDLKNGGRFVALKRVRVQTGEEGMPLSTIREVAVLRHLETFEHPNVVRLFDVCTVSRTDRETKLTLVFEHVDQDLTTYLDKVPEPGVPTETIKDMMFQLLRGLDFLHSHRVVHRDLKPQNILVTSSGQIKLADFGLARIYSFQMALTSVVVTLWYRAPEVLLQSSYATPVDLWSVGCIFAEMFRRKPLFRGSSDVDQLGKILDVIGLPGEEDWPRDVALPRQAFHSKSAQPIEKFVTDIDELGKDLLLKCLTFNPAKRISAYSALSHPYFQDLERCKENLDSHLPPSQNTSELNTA
Sequence of CDK6/cyclinD3 human (P30281 whole entry partner): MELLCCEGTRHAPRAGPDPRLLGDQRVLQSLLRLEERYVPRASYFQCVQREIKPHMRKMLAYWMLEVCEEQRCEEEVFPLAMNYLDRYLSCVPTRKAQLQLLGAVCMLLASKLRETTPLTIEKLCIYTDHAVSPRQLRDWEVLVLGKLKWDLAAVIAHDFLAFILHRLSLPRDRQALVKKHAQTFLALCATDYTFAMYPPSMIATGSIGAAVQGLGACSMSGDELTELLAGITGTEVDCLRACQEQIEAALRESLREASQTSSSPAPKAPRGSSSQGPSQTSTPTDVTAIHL
Description: as §2, §3, §4
as §5, with “CDK6/cyclinD3 human” for “CDK1/cyclinB (h)”

CDK7/cyclinH/MAT1 (h) = CDK7/cyclinH/MAT1 (h) (Homo sapiens, UniProt P50613); assay: Kinase profiling C3.8 CDK7/cyclinH/MAT1 human; conditions: CDK7/cyclinH/MAT1, test concentration of 10^−6 M
Sequence of CDK7/cyclinH/MAT1 (h) (P50613 whole entry): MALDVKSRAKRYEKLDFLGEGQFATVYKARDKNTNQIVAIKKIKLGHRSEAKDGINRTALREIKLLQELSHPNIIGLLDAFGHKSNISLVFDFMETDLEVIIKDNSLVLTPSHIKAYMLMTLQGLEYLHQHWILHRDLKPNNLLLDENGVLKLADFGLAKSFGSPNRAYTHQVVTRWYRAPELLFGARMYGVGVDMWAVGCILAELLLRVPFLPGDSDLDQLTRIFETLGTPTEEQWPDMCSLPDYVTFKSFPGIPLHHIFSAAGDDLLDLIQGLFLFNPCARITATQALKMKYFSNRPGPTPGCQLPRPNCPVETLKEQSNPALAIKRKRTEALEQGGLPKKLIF
Sequence of CDK7/cyclinH/MAT1 (h) (P51946 whole entry partner): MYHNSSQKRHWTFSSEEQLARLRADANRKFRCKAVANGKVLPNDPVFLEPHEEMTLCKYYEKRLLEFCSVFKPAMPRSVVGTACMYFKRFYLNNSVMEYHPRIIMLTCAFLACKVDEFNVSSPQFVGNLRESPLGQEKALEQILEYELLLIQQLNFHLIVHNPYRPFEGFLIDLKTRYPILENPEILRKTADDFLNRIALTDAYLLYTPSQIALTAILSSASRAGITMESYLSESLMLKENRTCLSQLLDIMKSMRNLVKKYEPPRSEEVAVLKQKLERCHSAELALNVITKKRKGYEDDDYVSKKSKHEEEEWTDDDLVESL
Sequence of CDK7/cyclinH/MAT1 (h) (P51948 whole entry partner): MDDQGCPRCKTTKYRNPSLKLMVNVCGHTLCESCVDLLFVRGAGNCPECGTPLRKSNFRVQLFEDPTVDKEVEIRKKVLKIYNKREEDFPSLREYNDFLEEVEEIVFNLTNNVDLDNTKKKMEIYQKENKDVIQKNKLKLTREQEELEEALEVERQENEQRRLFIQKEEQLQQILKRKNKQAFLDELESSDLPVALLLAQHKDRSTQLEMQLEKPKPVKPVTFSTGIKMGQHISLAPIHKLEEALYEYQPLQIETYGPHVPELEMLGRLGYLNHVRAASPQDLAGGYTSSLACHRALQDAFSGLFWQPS
Description: as §2, §3, §4
as §5, with “CDK7/cyclinH/MAT1” for “CDK1/cyclinB”, “500 μM peptide,” for “0.1 mg/ml histone H1,”

Sequence of GSK-3α (P49840 whole entry, species assumed): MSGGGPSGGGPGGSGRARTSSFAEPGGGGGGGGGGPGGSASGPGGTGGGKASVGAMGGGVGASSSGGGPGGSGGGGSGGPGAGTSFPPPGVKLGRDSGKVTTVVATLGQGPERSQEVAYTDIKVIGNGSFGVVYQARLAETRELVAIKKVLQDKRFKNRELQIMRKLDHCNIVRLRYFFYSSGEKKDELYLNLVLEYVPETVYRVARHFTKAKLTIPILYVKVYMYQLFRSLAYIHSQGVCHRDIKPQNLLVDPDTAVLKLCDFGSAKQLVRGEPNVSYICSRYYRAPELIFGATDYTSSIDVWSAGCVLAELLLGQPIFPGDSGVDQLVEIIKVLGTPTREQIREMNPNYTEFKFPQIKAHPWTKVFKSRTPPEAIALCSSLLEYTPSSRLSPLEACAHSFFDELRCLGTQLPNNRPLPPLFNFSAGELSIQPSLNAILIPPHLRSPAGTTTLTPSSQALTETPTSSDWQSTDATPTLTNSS

Row | pIC50 (GSK-3α) | pIC50 (GSK-3β) | C3.2 score (CDK1/cyclinB (h)) | C3.3 score (CDK2/cyclinA (h)) | C3.4 score (CDK2/cyclinE (h)) | C3.5 score (CDK3/cyclinE (h)) | C3.6 score (CDK5/p35 human) | C3.7 score (CDK6/cyclinD3 human) | C3.8 score (CDK7/cyclinH/MAT1 (h)) | C1 Score β (GSK-3β) | SMILES
1 | 7.00 to 8.00 | 7.00 to 8.00 | 4 (Score 4 = >80% inhibition) | 4 (Score 4 = >80% inhibition) | 4 (Score 4 = >80% inhibition) | 4 (Score 4 = >80% inhibition) | 4 (Score 4 = >80% inhibition) | 2 (Score 2 = 30-60% inhibition) | 3 (Score 3 = 60-80% inhibition) | – | CN1CCC(=O)NCCNc2cc(ccn2)-c2ncnc(n2)Nc2cccc(c2)C1 [Compound 17]
2 | 6.00 to 7.00 | 6.00 to 7.00 | 3 (Score 3 = 60-80% inhibition) | 4 (Score 4 = >80% inhibition) | 4 (Score 4 = >80% inhibition) | 3 (Score 3 = 60-80% inhibition) | 2 (Score 2 = 30-60% inhibition) | 1 (Score 1 = 10-30% inhibition) | 2 (Score 2 = 30-60% inhibition) | – | O=C1NCCNc2cc(ccn2)-c2ncnc(n2)Nc2cccc(c2)CN2CCC[C@H]12 [Compound 18]
3 | 6.00 to 7.00 | 7.00 to 8.00 | 4 (Score 4 = >80% inhibition) | 4 (Score 4 = >80% inhibition) | 4 (Score 4 = >80% inhibition) | 4 (Score 4 = >80% inhibition) | 3 (Score 3 = 60-80% inhibition) | 2 (Score 2 = 30-60% inhibition) | 2 (Score 2 = 30-60% inhibition) | – | O=C1CCN2CCN(CC2)Cc2cccc(c2)Nc2ncnc(n2)-c2ccnc(c2)NCCN1 [Compound 19]
4 | 6.00 to 7.00 | – | 3 (Score 3 = 60-80% inhibition) | 4 (Score 4 = >80% inhibition) | 4 (Score 4 = >80% inhibition) | 4 (Score 4 = >80% inhibition) | 3 (Score 3 = 60-80% inhibition) | 1 (Score 1 = 10-30% inhibition) | 2 (Score 2 = 30-60% inhibition) | 3 (Score 3=pIC50 value from 7-8) | CN1CCC(=O)NCCNc2cc(ccn2)-c2ncnc(n2)Nc2cccc(c2)C1 [Compound 20]
5 | 6.00 to 7.00 | 6.00 to 7.00 | 4 (Score 4 = >80% inhibition) | 4 (Score 4 = >80% inhibition) | 4 (Score 4 = >80% inhibition) | 4 (Score 4 = >80% inhibition) | 3 (Score 3 = 60-80% inhibition) | 1 (Score 1 = 10-30% inhibition) | 2 (Score 2 = 30-60% inhibition) | – | O=C1NCCCNc2cc(ccn2)-c2ncnc(n2)Nc2cccc(c2)CN2CCC[C@@H]12 [Compound 21]
6 | 6.00 to 7.00 | 6.00 to 7.00 | 4 (Score 4 = >80% inhibition) | 4 (Score 4 = >80% inhibition) | 4 (Score 4 = >80% inhibition) | 4 (Score 4 = >80% inhibition) | 2 (Score 2 = 30-60% inhibition) | 1 (Score 1 = 10-30% inhibition) | 1 (Score 1 = 10-30% inhibition) | – | O=C1CCN2CCN(CC2)Cc2cccc(c2)Nc2ncnc(n2)-c2ccnc(c2)NCCCN1 [Compound 22]
7 | 6.00 to 7.00 | 6.00 to 7.00 | 2 (Score 2 = 30-60% inhibition) | 3 (Score 3 = 60-80% inhibition) | 4 (Score 4 = >80% inhibition) | 3 (Score 3 = 60-80% inhibition) | 2 (Score 2 = 30-60% inhibition) | 1 (Score 1 = 10-30% inhibition) | 1 (Score 1 = 10-30% inhibition) | – | CN1Cc2cccc(c2)Nc2ncnc(n2)-c2ccnc(c2)NCCCNC(=O)CCN2CCC1CC2 [Compound 23]
8 | 6.00 to 7.00 | 7.00 to 8.00 | 2 (Score 2 = 30-60% inhibition) | 3 (Score 3 = 60-80% inhibition) | 3 (Score 3 = 60-80% inhibition) | 2 (Score 2 = 30-60% inhibition) | 2 (Score 2 = 30-60% inhibition) | 1 (Score 1 = 10-30% inhibition) | 3 (Score 3 = 60-80% inhibition) | – | CN1CCCC(=O)NCCc2cccc(c2)Nc2ncnc(n2)-c2ccnc(c2)CCC1 [Compound 24]
9 | 7.00 to 8.00 | – | 2 (Score 2 = 30-60% inhibition) | 3 (Score 3 = 60-80% inhibition) | 2 (Score 2 = 30-60% inhibition) | 1 (Score 1 = 10-30% inhibition) | 2 (Score 2 = 30-60% inhibition) | 1 (Score 1 = 10-30% inhibition) | – | – | O=C1CN2CCN(CC2)Cc2cccc(c2)Nc2ncnc(n2)-c2cccc(c2)NCCN1 [Compound 58]
